# Results: article PMC10866072, “Design, synthesis, molecular modelling and biological evaluation of novel 6-amino-5-cyano-2-thiopyrimidine derivatives as potent anticancer agents against leukemia and apoptotic inducers” (Journal of Enzyme Inhibition and Medicinal Chemistry, 2024)
# Key:
# HCT-15 = assay type: cell-based; conditions: Homo sapiens, one dose 10^-5 M, 48 h, read-out: % growth
# SW-620 = assay type: cell-based; conditions: Homo sapiens, one dose 10^-5 M, 48 h
# PC-3 = assay type: cell-based; conditions: Homo sapiens, one dose 10^-5 M, 48 h
# SK-MEL-28 = assay type: cell-based; conditions: Homo sapiens, one dose 10^-5 M, 48 h
# A498 = assay type: cell-based; conditions: Homo sapiens, one dose 10^-5 M, 48 h
# T-47D = assay type: cell-based; conditions: Homo sapiens, T47D, one dose 10^-5 M, 48 h, read-out: % growth
# NCI-H226 = assay type: cell-based; conditions: Homo sapiens, one dose 10^-5 M, 48 h
# OVCAR-5 = assay type: cell-based; conditions: Homo sapiens, one dose 10^-5 M, 48 h
# HOP-92 = assay type: cell-based; conditions: Homo sapiens, one dose 10^-5 M, 48 h
# OVCAR-8 = assay type: cell-based; conditions: Homo sapiens, one dose 10^-5 M, 48 h
# ACHN = assay type: cell-based; conditions: Homo sapiens, one dose 10^-5 M, 48 h
# K-562 = assay type: cell-based; conditions: Homo sapiens, K562, one dose 10^-5 M, 48 h
# SK-MEL-5 = assay type: cell-based; conditions: Homo sapiens, one dose 10^-5 M, 48 h, read-out: % growth
# SK-OV-3 = assay type: cell-based; conditions: Homo sapiens, one dose 10^-5 M, 48 h
# HCT-116 = assay type: cell-based; conditions: Homo sapiens, one dose 10^-5 M, 48 h, read-out: % growth
# CAKI-1 = assay type: cell-based; conditions: Homo sapiens, CAKI-1, 48 h, one dose 10^-5 M, 48 h
# HT29 = assay type: cell-based; conditions: Homo sapiens, HT-29, one dose 10^-5 M, 48 h
# UO-31 = assay type: cell-based; conditions: Homo sapiens, UO-31, 48 h, one dose 10^-5 M, 48 h
# LOX IMVI = assay type: cell-based; conditions: Homo sapiens, one dose 10^-5 M, 48 h, read-out: % growth
# OVCAR-3 = assay type: cell-based; conditions: Homo sapiens, one dose 10^-5 M, 48 h
# RPMI-8226 = assay type: cell-based; conditions: Homo sapiens, one dose 10^-5 M, 48 h
# MALME-3M = assay type: cell-based; conditions: Homo sapiens, one dose 10^-5 M, 48 h
# M14 = assay type: cell-based; conditions: Homo sapiens, one dose 10^-5 M, 48 h
# IGROV1 = assay type: cell-based; conditions: Homo sapiens, IGROV-1, one dose 10^-5 M, 48 h, read-out: % growth
# 786-0 = assay type: cell-based; conditions: Homo sapiens, one dose 10^-5 M, 48 h
# SF-539 = assay type: cell-based; conditions: Homo sapiens, one dose 10^-5 M, 48 h
# TK-10 = assay type: cell-based; conditions: Homo sapiens, one dose 10^-5 M, 48 h
# A549/ATCC = assay type: cell-based; conditions: Homo sapiens, one dose 10^-5 M, 48 h
# OVCAR-4 = assay type: cell-based; conditions: Homo sapiens, one dose 10^-5 M, 48 h
# RXF 393 = assay type: cell-based; conditions: Homo sapiens, RXF 393, 48 h, one dose 10^-5 M, 48 h, read-out: % growth
# MOLT-4 = assay type: cell-based; conditions: Homo sapiens, one dose 10^-5 M, 48 h, read-out: % growth
# SN12C = assay type: cell-based, human; conditions: Homo sapiens, one dose 10^-5 M, 48 h
# [1] = tested on: full NCI 60 cell lines panel; conditions: Homo sapiens, 60 cell, 48 h, read-out: Mean % growth
# EKVX = assay type: cell-based; conditions: Homo sapiens, one dose 10^-5 M, 48 h
# UACC-62 = assay type: cell-based; conditions: Homo sapiens, one dose 10^-5 M, 48 h
# HL-60(TB) = assay type: cell-based; conditions: Homo sapiens, one dose 10^-5 M, 48 h
# NCI-H522 = assay type: cell-based; conditions: Homo sapiens, one dose 10^-5 M, 48 h
# MDA-MB-231/ATCC = assay type: cell-based; conditions: Homo sapiens, one dose 10^-5 M, 48 h
# HOP-62 = assay type: cell-based; conditions: Homo sapiens, one dose 10^-5 M, 48 h
# NCI-H23 = assay type: cell-based; conditions: Homo sapiens, one dose 10^-5 M, 48 h, read-out: % growth
# KM12 = assay type: cell-based; conditions: Homo sapiens, one dose 10^-5 M, 48 h
# SR = assay type: cell-based; conditions: Homo sapiens, one dose 10^-5 M, 48 h
# MDA-MB-435 = assay type: cell-based; conditions: Homo sapiens, one dose 10^-5 M, 48 h, read-out: % growth
# CCRF-CEM = assay type: cell-based; conditions: Homo sapiens, one dose 10^-5 M, 48 h
# NCI-H460 = assay type: cell-based; conditions: Homo sapiens, one dose 10^-5 M, 48 h, read-out: % growth
# MCF7 = assay type: cell-based; conditions: Homo sapiens, one dose 10^-5 M, 48 h, read-out: % growth
# SF-268 = assay type: cell-based; conditions: Homo sapiens, one dose 10^-5 M, 48 h, read-out: % growth
# SK-MEL-2 = assay type: cell-based; conditions: Homo sapiens, one dose 10^-5 M, 48 h
# MDA-MB-468 = assay type: cell-based; conditions: Homo sapiens, one dose 10^-5 M, 48 h
# U251 = assay type: cell-based; conditions: Homo sapiens, U-251, one dose 10^-5 M, 48 h
# DU-145 = assay type: cell-based; conditions: Homo sapiens, one dose 10^-5 M, 48 h
# UACC-257 = assay type: cell-based; conditions: Homo sapiens, one dose 10^-5 M, 48 h
# HCC-2998 = assay type: cell-based; conditions: Homo sapiens, one dose 10^-5 M, 48 h
# HS 578T = assay type: cell-based; conditions: Homo sapiens; one dose 10^-5 M, 48 h; HS 578T; read-out: % growth
# SF-295 = assay type: cell-based; conditions: Homo sapiens, one dose 10^-5 M, 48 h
# SNB-19 = assay type: cell-based; conditions: Homo sapiens, one dose 10^-5 M, 48 h, read-out: % growth
# SNB-75 = assay type: cell-based; conditions: Homo sapiens, one dose 10^-5 M, 48 h
compound,measurement,setting,value
"N=C(NN=Cc1ccc(Cl)cc1Cl)c1c(N)nc(S)nc1-c1ccc(Cl)cc1 [Compound 4l, 4-amino-6–(4-chlorophenyl)-N'-[(2,4-dichlorophenyl)methylene]-2-mercapto pyrimidine-5-carboximidohydrazide]",activity at 10 µM,HCT-15,77.4%
same,% growth at 10 µM,SW-620,95.8%
same,percent cell growth at 10 µM,PC-3,48%
same,% cell growth at 10 µM,SK-MEL-28,75.8%
same,% growth at 10 µM,A498,6.77%
same,activity at 10 µM,T-47D,28.1%
same,% growth at 10 µM,NCI-H226,62.4%
same,percent cell growth at 10 µM,OVCAR-5,73.2%
same,% growth at 10 µM,HOP-92,54.9%
same,% growth of cells at 10 µM,OVCAR-8,90%
same,% growth at 10 µM,ACHN,53.2%
same,% growth at 10 µM,K-562,77.1%
same,activity at 10 µM,SK-MEL-5,81%
same,% growth at 10 µM,SK-OV-3,82.1%
same,activity at 10 µM,HCT-116,84.2%
same,% growth at 10 µM,CAKI-1,37%
same,% growth at 10 µM,HT29,87%
same,% cell growth at 10 µM,UO-31,43.2%
same,activity at 10 µM,LOX IMVI,69.4%
same,% growth at 10 µM,OVCAR-3,80.2%
same,% growth at 10 µM,RPMI-8226,46.5%
same,% growth at 10 µM,MALME-3M,43.4%
same,% growth at 10 µM,M14,76.2%
same,activity at 10 µM,IGROV1,44.9%
same,% growth at 10 µM,786-0,88.6%
same,% growth at 10 µM,SF-539,70.3%
same,% cell growth at 10 µM,TK-10,98.8%
same,% growth at 10 µM,A549/ATCC,90.7%
same,% growth at 10 µM,OVCAR-4,79.2%
same,activity at 10 µM,RXF 393,31.2%
same,activity at 10 µM,MOLT-4,66.4%
same,% growth at 10 µM,SN12C,65.5%
same,activity at 10 µM,[1],68.3%
same,% cell growth at 10 µM,EKVX,59%
same,% growth at 10 µM,UACC-62,43.1%
same,% growth at 10 µM,HL-60(TB),101%
same,% growth at 10 µM,NCI-H522,62.3%
same,% growth at 10 µM,MDA-MB-231/ATCC,52.7%
same,% growth at 10 µM,HOP-62,53%
same,activity at 10 µM,NCI-H23,78.3%
same,% growth at 10 µM,KM12,79.8%
same,percent cell growth at 10 µM,SR,65.6%
same,activity at 10 µM,MDA-MB-435,89%
same,% cell growth at 10 µM,CCRF-CEM,64.6%
same,activity at 10 µM,NCI-H460,66.3%
same,activity at 10 µM,MCF7,53.1%
same,activity at 10 µM,SF-268,73.6%
same,% growth at 10 µM,SK-MEL-2,83.3%
same,percent cell growth at 10 µM,MDA-MB-468,88.4%
same,% growth at 10 µM,U251,93.9%
same,% growth at 10 µM,DU-145,79.3%
same,percent cell growth at 10 µM,UACC-257,96.5%
same,% growth at 10 µM,HCC-2998,95%
same,activity at 10 µM,HS 578T,36.4%
same,% cell growth at 10 µM,SF-295,85%
same,activity at 10 µM,SNB-19,84%
same,% growth at 10 µM,SNB-75,26.1%
